In PubChem BioAssay (NCI):
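Five compound concentrations were applied to cells in 96-well plates for 48 hours; endpoints were derived by simple linear interpolation of the resulting dose-response curve. GI50: concentration for 50% inhibition of growth. TGI: total growth inhibition.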

Legend:
Assay in all cases: NCI anticancer screen, dose series, 48 h
[1] = system: NCI-H226 lung
[2] = system: A498 renal
[3] = system: NCI-H522 lung
[4] = system: ACHN renal
[5] = system: HCT-15 colon
[6] = system: RPMI-8226 leukemia
[7] = system: MALME-3M melanoma
[8] = system: SF-539 CNS
[9] = system: OVCAR-3 ovarian
[10] = system: UO-31 renal

Compound | GI50 [1] [µM] | TGI [1] [µM] | GI50 [2] [µM] | TGI [2] [µM] | GI50 [3] [µM] | TGI [3] [µM] | GI50 [4] [µM] | TGI [4] [µM] | GI50 [5] [µM] | TGI [5] [µM] | GI50 [6] [µM] | TGI [6] [µM] | GI50 [7] [µM] | TGI [7] [µM] | GI50 [8] [µM] | TGI [8] [µM] | GI50 [9] [µM] | TGI [9] [µM] | GI50 [10] [µM] | TGI [10] [µM]
N#Cc1c(Br)n(C2OC(CO)C(O)C2O)c2ncnc(N)c12 (stereo not given) | 9.16 | > 100 | 2.64 | 20.9 | 4.62 | 14.8 | 1.21 | > 90.9 | 0.695 | 46.3 | 1.26 | 6.69 | 2.53 | 20 | 3.91 | 19.3 | 1.6 | 34.1 | 2.25 | 59.5
CCC/C=C1\CCC(CN(C)C)C1=O (stereo not given) | – | 35.1 | – | 23.9 | – | 3.87 | – | 11.2 | – | 6.68 | – | 2.75 | – | 11.4 | – | 25.3 | – | 12.3 | – | 26.6
Cc1c(CCO)c(=O)n2c([nH]c3ccccc32)c1C#N | – | > 100 | – | > 100 | – | > 100 | – | > 100 | – | > 100 | – | > 100 | – | > 100 | – | > 100 | – | > 100 | – | > 100
COP(=O)(OC)C(NC(=O)C(F)(F)F)(c1ccccc1)C(F)(F)F (stereo not given) | – | > 100 | – | > 100 | – | > 100 | – | > 100 | – | > 100 | – | > 100 | – | > 100 | – | > 100 | – | > 100 | – | > 100
CN(C)c1nnnn1-c1c(N)n(C)c(=O)n(C)c1=O | – | > 100 | – | > 100 | – | > 100 | – | > 100 | – | > 100 | – | > 100 | – | > 100 | – | > 100 | – | > 100 | – | > 100
Cc1cc(Nc2nc(-c3cccnc3)nc3ccccc23)n[nH]1 | 1.39 | > 24.2 | 0.183 | 0.985 | 1.69 | > 100 | 0.527 | > 100 | 0.512 | > 100 | > 38.5 | > 95.1 | > 100 | > 100 | 1.82 | 7.99 | 3.74 | > 100 | 0.443 | > 100
NC1=NC(c2ccc(Cl)cc2)N(c2ccc(S(N)(=O)=O)cc2)C(N)=N1 (stereo not given) | – | > 100 | – | > 100 | – | > 100 | – | > 100 | – | > 100 | – | > 100 | – | > 100 | – | > 100 | – | > 100 | – | > 100
CN(C)c1ccc(/C=C/c2ccc(/C=C/c3ccc(N(C)C)cc3)cc2)cc1 | – | > 100 | – | > 100 | – | > 100 | – | > 100 | – | > 100 | – | > 100 | – | > 100 | – | > 100 | – | > 100 | – | > 100
CC(C)N1CCN(Cc2ccc3c(NNC(=O)c4ccccc4)nc4cc(F)ccc4n23)CC1 | 0.534 | 8.18 | 0.564 | 4.12 | 0.532 | 5.05 | 0.0902 | 12 | 0.0563 | 3.91 | 0.476 | 3.18 | 0.575 | 2.4 | 0.403 | 1.82 | 0.289 | 6.79 | 0.0688 | 3.14
CCN(Cc1ccc(F)cc1)c1ccc(CO)c(C)c1 | 0.291 | 1.12 | 0.216 | 1.14 | 8.52 | 22 | 12.5 | 39.4 | 8.86 | 39.4 | 6.69 | 37.1 | 5.58 | 17.3 | 15 | 29.8 | 11.1 | 24.1 | 9.34 | 25.1
C[N+](C)(C)CC1CCC/C1=N/O (stereo not given) | – | > 100 | – | > 100 | – | > 100 | – | > 100 | – | 38.8 | – | 47 | – | > 100 | – | > 100 | – | > 100 | – | > 100
Cc1cc(-c2ccccc2)nc(Nc2nc3ccccc3o2)n1 | – | > 100 | – | > 100 | – | > 100 | – | > 100 | – | > 100 | – | > 100 | – | > 100 | – | > 100 | – | > 100 | – | > 100
COC(=O)C1C=CCON2CCc3c(n(C)c4ccccc34)C12 (stereo not given) | – | > 100 | – | > 100 | – | > 100 | – | > 100 | – | > 100 | – | > 100 | – | > 100 | – | > 100 | – | > 100 | – | > 100
Clc1ccc(-c2nnc(-c3cccc4ccccc34)o2)cc1Cl | – | > 100 | – | > 100 | – | > 100 | – | > 100 | – | > 100 | – | > 100 | – | > 100 | – | > 100 | – | > 100 | – | > 100
